From patent US8044054B2, “Stereoisomerically enriched 3-aminocarbonyl bicycloheptene pyrimidinediamine compounds and their uses” (Rigel Pharmaceuticals, Inc., priority 2004, dated 2011)
Counter-ions that a name gives are not always drawn. Like-named read-outs stand apart in the source and are kept apart here. Values belong to the molecule of their own block, whether it stands above or below them.

Tests used:
A549 (lung carcinoma) = assay: In vitro antiproliferation assay, A549; format: cell-based
[1] = system: SW620 (colorectal adenocarcinoma); assay: In vitro antiproliferation assay, SW620; format: cell-based
[2] = system: L1210 (mouse lymphocytic leukemia); assay: In vitro antiproliferation assay, L1210; format: cell-based
[3] = system: DU145 (prostate carcinoma); assay: In vitro antiproliferation assay, DU145; format: cell-based
[4] = system: PC3 (prostate adenocarcinoma); assay: In vitro antiproliferation assay, PC3; format: cell-based
[5] = system: K562 (bone marrow chronic myelogenous leukemia); assay: In vitro antiproliferation assay, K562; format: cell-based
[6] = system: THP-1 (monocyte acute monocytic leukemia); assay: In vitro antiproliferation assay, THP-1; format: cell-based
H7299 = assay: In vitro antiproliferation assay, H7299; format: cell-based
U2OS (bone osteosarcoma) = assay: In vitro antiproliferation assay, U2OS; format: cell-based; conditions: U20S
[7] = system: ASPC-1 (pancreatic adenocarcinoma); assay: In vitro antiproliferation assay, ASPC-1; format: cell-based; conditions: ASPC1
[8] = system: H460 (large cell lung carcinoma); conditions: read-out: In Vitro IC50
Protocol: Compounds 60r1, 60r2, 60r1.2HCl, 60a, 60b and 60a.HCl were tested against a variety of different types of tumor cells for their ability to inhibit proliferation using standard in vitro antiproliferation assays.

[9] = system: H1299 (non-small cell lung carcinoma); assay: In vitro antiproliferation assay, H1299; format: cell-based
A549 tumors = conditions: A549, treatment model, 5 days on/2 days off, 10 mg/kg qd, p>0.05
Protocol: (§1) Compound 60a.2HCl, was tested for its ability to shrink A549 and Colo205 tumors in a standard xenograft therapeutic model in SCID mice, and Colo205 and MiaPaCa tumors in a standard xenograph regression model in SCID mice. When palpable tumors appeared and were of a preselected volume (approx. 100 mm3 for treatment model; >300 mm3 for regression model), the mice were administered test compounds in the amounts and according to the dosing regimens specified in TABLE 3 (treatment protocol) and TABLE 4 (regression protocol), below.

Colo205 tumors = system: Colo205 tumors
Protocol: as §1

MiaPaCa tumors = conditions: regression model, 10 mg/kg/day daily (3 cycles), oral or i.p.
Protocol: as §1

[10] = system: variety of different tumor cell lines; assay: In vitro antiproliferation assays, summary over the tumor cell lines tested; format: cell-based; conditions: for IC50's against tumor cell lines, tested as isolated stereoisomers: general range over the cell lines
Source text: The cis racemate of structural formula (IIa) can be referred to as the 2-exo-3-exo racemate, and includes the (1R,2R,3S,4S) and (1S,2S,3R,4R) diastereomers of structural formulae (Ia) and (Ib), respectively. The cis racemate of structural formula (IIb) can be referred to as the 2-endo-3-endo racemate, and includes the (1R,2S,3R,4S) and (1S,2R,3S,4R) diastereomers of structural formulae (Ic) and (Id), respectively. […] Moreover, it has been discovered that the (1R,2R,3S,4S) diastereomer of racemate r1 is largely responsible for the potency of the racemate r1.

Aurora kinase-B = target: T1, Aurora kinase-B (Homo sapiens, UniProt Q96GD4); assay: Functional cellular assay of Aurora kinase-B, phosphorylation of histone H3 in A549 cells; format: cell-based
T1 construct: endogenous in cells; host or cells: A549 cells
T1 sequence (Q96GD4 whole entry): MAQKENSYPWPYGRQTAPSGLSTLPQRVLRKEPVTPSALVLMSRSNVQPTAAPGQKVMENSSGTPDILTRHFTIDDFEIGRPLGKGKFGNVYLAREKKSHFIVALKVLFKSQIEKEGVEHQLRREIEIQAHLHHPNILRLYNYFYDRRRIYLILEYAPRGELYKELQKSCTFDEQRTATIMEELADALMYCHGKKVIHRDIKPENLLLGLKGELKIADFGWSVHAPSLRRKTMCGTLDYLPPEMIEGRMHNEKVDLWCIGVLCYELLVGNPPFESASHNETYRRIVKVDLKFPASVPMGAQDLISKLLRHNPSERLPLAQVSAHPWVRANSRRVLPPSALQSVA
Protocol: Compounds 60a and 60b were tested for their ability to inhibit Aurora kinase-B in a functional cellular assay involving phosphorylation of its substrate, histone H3. For the assay, A549 cells were seeded into the wells of a microtiter tray (5000 cells/well in 100 μl F12K media) late in the afternoon on Day 1. The cells were grown overnight (37° C., 5% CO2). On Day 2, 50 μl nocodazole (1 μM in media) was added to each well, giving a final concentration of 333 nM. Cells were grown for an additional 18 hrs under the same conditions.
On Day 3, 50 μl aliguots of varying concentrations of test compound were added to the wells. […] The cells were then stained with a secondary antibody labeled with a fluorescent dye (secondary antibody donkey anti-mouse AlexFluor 488 (Invitrogen Molecular Probes; 1:2000) and DAPI (1:15,000 of 1 mg/ml stock) for 1 hr at room temperature, washed three times with DPBS (200 μl/well) and stored under DPBS (100 μl/well) at 4° C. until ready for analysis.
A Zeiss Axiovert S100 inverted fluorescent microscope with a Plan-NEOFLUAR 10× objective, a Hamamatsu Lightningcure 200 Mercury-Xenon light source and an Omega Optical XF57 quad filter was used for all data collection. […] Images were captured and analyzed in 12-bit format using segmentation and morphological routines contained in the Image Pro software package. […]

[11] = Pharmacokinetics in monkeys, plasma concentration over time; format: in vivo
Protocol: Compound 60a was administered to monkeys intravenously (1 mg/kg in saline) and orally (5 mg/kg in saline) and the plasma concentrations monitored over time.

[12] = system: SU86.86 (pancreatic carcinoma); assay: In vitro antiproliferation assay, SU86.86; format: cell-based; conditions: Homo sapiens, SU.86.86
[13] = system: SK-OV-3 (ovarian adenocarcinoma); assay: In vitro antiproliferation assay, SK-OV-3; format: cell-based; conditions: Homo sapiens, SKOV3

Compound: Cc1cc(Nc2ncc(F)c(NC3C4C=CC(C4)C3C(N)=O)n2)ccc1N1CCN(C)CC1 (racemic) [Compound 60r1, 2-exo-3-exo racemic N4-(3-aminocarbonylbicyclo[2.2.1]hept-5-ene-2-yl)-5-fluoro-N2-[3-methyl-4-(4-methylpiperazin-1-yl)phenyl]-2,4-pyrimidinediamine]
- IC50 (A549 (lung carcinoma)): 10 to 20 nM
- IC50 [1]: 20 to 1000 nM
- IC50 [2]: 20 to 1000 nM
- IC50 [3]: 10 to 20 nM
- IC50 [4]: 10 to 20 nM
- IC50 [5]: 20 to 1000 nM
- IC50 [6]: 20 to 1000 nM
- IC50 (H7299): 10 to 20 nM
- IC50 (U2OS (bone osteosarcoma)): 10 to 20 nM
- IC50 [7]: 10 to 20 nM

Compound: Cc1cc(Nc2ncc(F)c(N[C@H]3[C@@H](C(N)=O)[C@@H]4C=C[C@H]3C4)n2)ccc1N1CCN(C)CC1.Cl.Cl [Compound 60a.2HCl, (1R,2R,3S,4S)—N-4-(3-aminocarbonylbicyclo[2.2.1]hept-5-ene-2-yl)-5-fluoro-N2-[3-methyl-4-(4-methylpiperazin-1-yl)phenyl]-2,4-pyrimidinediamine bis hydrogen chloride salt]
- IC50 (A549 (lung carcinoma)): < 10 nM
- IC50 [8]: < 10 nM
- IC50 [3]: 20 to 1000 nM
- IC50 [9]: 20 to 1000 nM
- IC50 (H7299): 20 to 1000 nM
- reduction in mean tumor volume (A549 tumors): ~40%
- tumor growth rate (Colo205 tumors; Colo205, regression model, 10 mg/kg/day oral daily (13 days)): Significant reductions in tumor growth rate
- tumor growth rate compared to vehicle control (Colo205 tumors; Colo205, treatment model, daily and pulsed dosing regimens, all dosage levels tested (2 and 10 mg/kg/day oral)): significant (p<0.050) reductions in tumor growth rate
- tumor growth rate (MiaPaCa tumors): Significant reductions in tumor growth rate

Compound: Cc1cc(Nc2ncc(F)c(NC3C4C=CC(C4)C3C(N)=O)n2)ccc1N1CCN(C)CC1 (racemic) [Compound 60r1.2HCl, 2-exo-3-exo racemic N4-(3-aminocarbonylbicyclo[2.2.1.]hept-5-ene-2-yl)-5-fluoro-N2-[3-methyl-4-(4-methylpiperazin-1-yl)phenyl]-2,4-pyrimidinediamine bis hydrogen chloride salt]
- IC50 (A549 (lung carcinoma); listed as 60r1-2HCl): 20 to 1000 nM
- IC50 [9]: 20 to 1000 nM
- IC50 (H7299; listed as 60r1-2HCl): 20 to 1000 nM

- IC50's against tumor cell lines, tested as isolated stereoisomers [10]: micromolar range
- IC50 [3]: 20 to 1000 nM
- IC50 of 60b relative to its enantiomer 60a (Aurora kinase-B): approx. 350 times greater
- IC50 [6]: 20 to 1000 nM
- IC50 (U2OS (bone osteosarcoma)): 20 to 1000 nM
Compound: Cc1cc(Nc2ncc(F)c(N[C@@H]3[C@H](C(N)=O)[C@H]4C=C[C@@H]3C4)n2)ccc1N1CCN(C)CC1 [Compound 60b, (1S,2S,3R,4R)—N-4-(3-Aminocarbonylbicyclo[2.2.1]hept-5-en-2-yl)-5-fluoro-N2-[3-methyl-(4-methylpiperazin-1-yl)phenyl]-2,4-pyrimidinediamine]

- IC50's against tumor cell lines, tested as isolated stereoisomers [10]: nanomolar range
- IC50 ([1]; Homo sapiens, SW-620): 10 to 20 nM
- IC50 ([2]; Mus musculus): 10 to 20 nM
- time plasma concentration remained above the IC50 of 7 nM ([11]; intravenously, 1 mg/kg in saline): 11 h
- time plasma concentration was maintained above the IC50 ([11]; orally, 5 mg/kg in saline): over 20 hrs
- IC50 [12]: 10 to 20 nM
- IC50 ([3]; Homo sapiens, DU-145): 10 to 20 nM
- IC50 ([5]; Homo sapiens): 20 to 1000 nM
- IC50 ([6]; Homo sapiens): 20 to 1000 nM
- IC50 (H7299): 10 to 20 nM
- IC50 [13]: 10 to 20 nM
Compound: Cc1cc(Nc2ncc(F)c(N[C@H]3[C@@H](C(N)=O)[C@@H]4C=C[C@H]3C4)n2)ccc1N1CCN(C)CC1 [Compound 60a, (1R,2R,3S,4S)—N-4-(3-aminocarbonylbicyclo[2.2.1]hept-5-ene-2-yl)-5-fluoro-N2-[3-methyl-4-(4-methylpiperazin-1-yl)phenyl]-2,4-pyrimidinediamine]
- potency relative to the (1S,2S,3R,4R) enantiomer ([10]; in general, same cell lines): ~1000 fold
